Experiments:
Δ49N-hChoKα = biological target: T1, Δ49N-hChoKα (Homo sapiens, UniProt P35790); test: Biochemical kinase inhibition assay (Kinase-Glo luminescent) on Δ49N-hChoKα; conditions: recombinant Δ49N-hChoKα 2.2 nM, ATP 5 μM, choline 5 μM, 60 min rt; read-out: ChoKα IC50
T1 construct: cDNA fragment 362-1534, corresponding to aminoacids 50 457; GST (N, cleaved yes); PreScission Protease recognition site (N); made in house; host or cells: Escherichia coli BL21pLysS (DE3)
Description: (§1) HumanΔ49ChoKα ([…]Δ49N-hChoKα) cDNA fragment 362-1534, corresponding to aminoacids 50 457 (J. Mol. Biol. 2006, 364, 136-151), and hChoKβ full length (FL), corresponding to aminoacids 2-395 ((PLoS ONE 2009, 4, e7819), were amplified by PCR from human library and cloned, inserting upstream a Prescission Protease recognition site, in pDonor 221 vector, using the Gateway Technology® (Invitrogen). After sequence control, LR reaction was performed in the final expression pGEX 2Tg vector. Both the proteins were expressed in Escherichia coli BL21pLysS (DE3) strain in auto-induction (Kessler) medium in the presence of […] carbenicillin at 25° C. for 16 h. Cells were harvested by centrifugation, the pellet was re-suspended in Lysis buffer (50 mM Tris-HCl pH 7.8, 150 mM NaCl, 10% glycerol, 0.2% CHAPS, 20 mM DTT, Protease Inhibitor Cocktail Tablets from Roche Biochemicals) and lysed by Gaulin homogenizer (Niro Soavi). The lysate was cleared by centrifugation. The supernatant was added to GSH resin and let flow by gravity. The GSH resin was washed with 5 column volume (CV) of cold wash buffer (50 mM Tris-HCl pH 7.8, 150 mM NaCl, 10% glycerol), then with 10 CV of the same buffer containing 2 mM of DTT. Both GST-Δ49N-hChoKα and hChoKβ were subjected to on-column cleavage of the GST tag with Prescission Protease overnight. The eluted cleaved proteins were further purified by ion exchange (ResQ 6 mL chromatography column from GE healthcare) with a gradient from 50 to 500 mM NaCl in 30 CV. The fractions containing […]Δ49N-hChoKα or hChoKβ were pooled, concentrated and gel filtered on a Superdex200 16/60 (GE Healthcare). The final protein concentration was estimated using the Bradford assay. All the samples purified were resolved by SDS-PAGE.
(§2) Biochemical Kinase inhibition Assay on Δ49N-hChoKα and hChoKβFL
(§3) The biochemical activity of compounds against Δ49N-ChoKα and ChoK3 FL were determined using the Kinase-Glo™ Luminescent Kinase Assay (Promega cat. V6711). The assay is based on incubation of the recombinant Δ49N-hChoKα and hChoKβ FL produced in house, 2.2 nM and 30 nM, respectively, with the specific substrates, choline (Sigma-Aldrich-C7017) and ATP, followed by quantification, at the end of reaction time, of the residual not reacted ATP.
(§4) Compounds were 3-fold serially diluted from 10 to 0.0005 μM, then incubated for 60 minutes at room temperature in the presence of ATP 5 μM, choline (5 μM for ChoKα and 20 μM for ChoKβ) and enzyme in a final volume of 19 μL of kinase buffer (50 mM Hepes pH 7.5, 10 mM MgCl2, 1 mM DTT, 3 μM Na3VO4 and 0.2 mg/mL BSA). The final concentration of DMSO was 1%. The assay was run in a robotized format on 384-well plates (Perkin Elmer cat. #6005301).
(§5) At the end of the incubation, an amount of 19 μL of KinaseGlo Reagent was added to each well to stop the reaction and after 30 minutes the luminescence signal was measured using ViewLux reader (Perkin Elmer).
(§6) All information about plate dilution, distribution and raw data of inhibition are tracked via barcode reading and stored in an Oracle DB. The data per each molecule are analyzed by an internally customized version of the SW package “Assay Explorer” which provides sigmoidal fittings of the ten-dilution curves for IC50 determination using a 4 parameter logistic equation: y=bottom+(top−bottom)/(1+10^((log IC50−x)*slope)) where x is the logarithm of the inhibitor concentration, y is the response; y starts at bottom and goes to top with a sigmoid shape.

hChoKβ FL = biological target: T2, hChoKβ FL (Homo sapiens, UniProt Q9Y259); test: Biochemical kinase inhibition assay (Kinase-Glo luminescent) on hChoKβ FL; conditions: recombinant hChoKβ FL 30 nM, ATP 5 μM, choline 20 μM, 60 min rt; read-out: ChoKβ IC50
T2 construct: hChoKβ full length (FL), corresponding to aminoacids 2-395; GST (N, cleaved yes); PreScission Protease recognition site (N); made in house; host or cells: Escherichia coli BL21pLysS (DE3)
Description: as §1, §2, §3, §4, §5, §6

T2 sequence (Q9Y259 2-395): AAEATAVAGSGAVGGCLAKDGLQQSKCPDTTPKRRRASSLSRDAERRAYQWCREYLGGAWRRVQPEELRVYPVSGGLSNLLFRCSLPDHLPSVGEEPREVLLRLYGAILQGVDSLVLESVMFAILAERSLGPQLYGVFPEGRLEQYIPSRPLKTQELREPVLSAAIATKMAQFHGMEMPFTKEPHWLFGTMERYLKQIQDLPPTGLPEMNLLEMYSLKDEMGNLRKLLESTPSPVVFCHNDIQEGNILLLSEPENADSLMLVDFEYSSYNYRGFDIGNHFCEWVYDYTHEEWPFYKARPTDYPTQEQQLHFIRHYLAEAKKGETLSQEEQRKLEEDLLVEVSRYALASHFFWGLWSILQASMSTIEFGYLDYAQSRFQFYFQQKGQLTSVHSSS
T1 sequence (P35790 50-439 isoform P35790-2): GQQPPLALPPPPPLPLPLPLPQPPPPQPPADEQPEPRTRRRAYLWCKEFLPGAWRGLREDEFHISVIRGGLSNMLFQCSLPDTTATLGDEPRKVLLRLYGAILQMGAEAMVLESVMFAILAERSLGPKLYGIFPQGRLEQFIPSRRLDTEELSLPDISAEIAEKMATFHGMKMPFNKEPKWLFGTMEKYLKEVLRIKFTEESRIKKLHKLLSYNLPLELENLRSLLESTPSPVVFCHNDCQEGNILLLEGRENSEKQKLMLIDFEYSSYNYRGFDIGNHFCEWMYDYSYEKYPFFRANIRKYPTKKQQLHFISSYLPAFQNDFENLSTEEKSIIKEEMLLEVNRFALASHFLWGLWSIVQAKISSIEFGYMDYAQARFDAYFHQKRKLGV

| IC50 (Δ49N-hChoKα) | IC50 (hChoKβ FL) | SMILES |
| --- | --- | --- |
| 536 nM | 1440 nM | CC(C)(C)OC(=O)NC1CCN(Cc2ccc(NC(=O)c3n[nH]c4c3C(C)(C)Cc3cnc(N)nc3-4)cc2)CC1 [compound 133] |
| 428 nM | 5340 nM | CCOC(=O)c1cnc(NC(=O)c2n[nH]c3c2C(C)(C)Cc2cnc(N)nc2-3)s1 [compound 81] |
| 3 nM | 249 nM | CC1(C)Cc2cnc(N)nc2-c2[nH]nc(C(=O)Nc3nc(CNC4CCN(C5CCCCC5)CC4)cs3)c21 [compound 156] |
| 149 nM | > 10000 nM | CC1(C)Cc2cnc(N)nc2-c2[nH]nc(C(=O)Nc3nc(CC(=O)N4CC[C@@H](O)C4)cs3)c21 [compound 87] |
| 534 nM | > 10000 nM | CN(C)[C@@H]1CCN(C(=O)C2(c3csc(NC(=O)c4n[nH]c5c4C(C)(C)Cc4cnc(N)nc4-5)n3)CC2)C1 [compound 130] |
| 562 nM | 2390 nM | CC(C)(C)OC(=O)NC1CCN(Cc2cccc(NC(=O)c3n[nH]c4c3C(C)(C)Cc3cnc(N)nc3-4)c2)CC1 [compound 114] |
| 173 nM | 817 nM | CN1CCC(NC(=O)c2cccc(NC(=O)c3n[nH]c4c3C(C)(C)Cc3cnc(N)nc3-4)c2)CC1 [compound 10] |
| 244 nM | 1120 nM | CC1(C)Cc2cnc(N)nc2-c2[nH]nc(C(=O)Nc3ccc4c(c3)OCO4)c21 [compound 4] |
| 215 nM | 716 nM | CC1(C)Cc2cnc(N)nc2-c2[nH]nc(C(=O)Nc3ccc(C(=O)N4CCC(N5CCOCC5)CC4)cc3)c21 [compound 50] |
| 161 nM | > 10000 nM | CC1(C)Cc2cnc(N)nc2-c2[nH]nc(C(=O)Nc3nc(CC(=O)N4CCC(C(N)=O)CC4)cs3)c21 [compound 90] |
| 18 nM | > 10000 nM | CNc1ncc2c(n1)-c1[nH]nc(C(=O)Nc3nc(CC(=O)N4CCC(N5CCCCC5)CC4)cs3)c1C(C)(C)C2 [compound 121] |
| 53 nM | > 10000 nM | CC1CCN(C2CCN(C(=O)Cc3csc(N(C)C(=O)c4n[nH]c5c4C(C)(C)Cc4cnc(N)nc4-5)n3)CC2)CC1 [compound 123] |
| 710 nM | 5810 nM | CC1(C)Cc2cnc(N)nc2-c2[nH]nc(C(=O)Nc3ncc(Cl)s3)c21 [compound 66] |
| 430 nM | > 10000 nM | CCOC(=O)Cc1csc(NC(=O)c2n[nH]c3c2C(C)(C)Cc2cnc(N)nc2-3)n1 [compound 33] |
| 247 nM | 974 nM | COc1ccc(NC(=O)c2n[nH]c3c2C(C)(C)Cc2cnc(N)nc2-3)cc1 [compound 2] |
| 69 nM | 2380 nM | Cc1nc(NC(=O)c2n[nH]c3c2C(C)(C)Cc2cnc(N)nc2-3)sc1C(=O)NC1CCN(C)CC1 [compound 79] |
| 3 nM | 70 nM | CC1CCN(C2CCN(C(=O)c3ccc(NC(=O)c4n[nH]c5c4C(C)(C)Cc4cnc(N)nc4-5)cc3)CC2)CC1 [compound 52] |
| 210 nM | 810 nM | CC1(C)Cc2cnc(N)nc2-c2[nH]nc(C(=O)Nc3ccc(C(=O)N4CCC(N5CCOC5=O)CC4)cc3)c21 [compound 56] |
| 233 nM | 3940 nM | CC1(C)Cc2cnc(N)nc2-c2[nH]nc(C(=O)Nc3nc(C4(C(=O)N5CCC(N6CCCCC6)CC5)CC4)cs3)c21 [compound 131] |
| 79 nM | 1350 nM | CN1CCC(NC(=O)Cc2cnc(NC(=O)c3n[nH]c4c3C(C)(C)Cc3cnc(N)nc3-4)s2)CC1 [compound 74] |

| IC50 (Δ49N-hChoKα) | IC50 (hChoKβ FL) | SMILES |
| --- | --- | --- |
| 30 nM | 1380 nM | CC(C)=CC(=O)CC(C)(C)NC(=O)Cc1csc(NC(=O)c2n[nH]c3c2C(C)(C)Cc2cnc(N)nc2-3)n1 [compound 220] |
| 25 nM | 256 nM | CC1(C)Cc2cnc(N)nc2-c2[nH]nc(C(=O)Nc3nc(CC(=O)N4CCC(N)CC4)cs3)c21 [compound 44] |
| 228 nM | > 10000 nM | CC1(C)Cc2cnc(N)nc2-c2[nH]nc(C(=O)Nc3nc(CC(=O)N4CCC(O)CC4)cs3)c21 [compound 92] |
| 81 nM | 703 nM | CC1(C)Cc2cnc(N)nc2-c2[nH]nc(C(=O)Nc3nc(C(=O)O)cs3)c21 [compound 67] |
| 9 nM | 1950 nM | CC(C)(C)NC(=O)NC1CCN(C(=O)Cc2csc(NC(=O)c3n[nH]c4c3C(C)(C)Cc3cnc(N)nc3-4)n2)CC1 [compound 71] |
| 534 nM | > 10000 nM | CC1(C)Cc2cnc(N)nc2-c2[nH]nc(C(=O)Nc3nc(CN4CCC(N)CC4)cs3)c21 [compound 152] |
| 431 nM | > 10000 nM | Cn1nc(C(=O)Nc2cccc(CN3CCC(N4CCCCC4)CC3)c2)c2c1-c1nc(N)ncc1CC2(C)C [compound 109] |
| 2 nM | 26 nM | CC1CCN(C2(C)CCN(C(=O)Cc3csc(NC(=O)c4n[nH]c5c4C(C)(C)Cc4cnc(N)nc4-5)n3)CC2)CC1 [compound 227] |
| 33 nM | 72 nM | CN(C)C1CCN(Cc2ccc(NC(=O)c3n[nH]c4c3C(C)(C)Cc3cnc(N)nc3-4)cc2)CC1 [compound 118] |
| 187 nM | > 10000 nM | CN(C(=O)c1nn(C)c2c1C(C)(C)Cc1cnc(N)nc1-2)c1nc(CC(=O)N2CCC(N3CCCCC3)CC2)cs1 [compound 124] |
| 715 nM | 3510 nM | CC1(C)Cc2cnc(N)nc2-c2[nH]nc(C(=O)Nc3ccc(C(=O)N4CCC(NC(=O)CCCO)CC4)cc3)c21 [compound 53] |
| 35 nM | 1080 nM | CC1(C)Cc2cnc(N)nc2-c2[nH]nc(C(=O)Nc3nc(C(=O)N4CCC(N5CCCCC5)CC4)cs3)c21 [compound 70] |
| 2 nM | 296 nM | CC1(C)CCCN(C2CCN(C(=O)Cc3csc(NC(=O)c4n[nH]c5c4C(C)(C)Cc4cnc(N)nc4-5)n3)CC2)C1 [compound 219] |
| 53 nM | 66 nM | CNC1CCN(C(=O)Cc2csc(NC(=O)c3n[nH]c4c3C(C)(C)Cc3cnc(N)nc3-4)n2)CC1 [compound 119] |
| 735 nM | 317 nM | CN1CCN(c2ccc(NC(=O)c3n[nH]c4c3C(C)(C)Cc3cnc(N)nc3-4)cc2)CC1 [compound 6] |
| 218 nM | 2590 nM | Cc1nc(NC(=O)c2n[nH]c3c2C(C)(C)Cc2cnc(N)nc2-3)sc1C(=O)N1CCC(N2CCCCC2)CC1 [compound 78] |
| 10 nM | 400 nM | CN(C)C1CCN(C(=O)Cc2csc(NC(=O)c3n[nH]c4c3C(C)(C)Cc3cnc(N)nc3-4)n2)CC1 [compound 89] |
| 267 nM | 444 nM | CNC(=O)c1ccc(NC(=O)c2n[nH]c3c2C(C)(C)Cc2cnc(N)nc2-3)cc1 [compound 27] |
| 7 nM | 303 nM | CC1CCN(C2CCN(C(=O)C(F)(F)c3csc(NC(=O)c4n[nH]c5c4C(C)(C)Cc4cnc(N)nc4-5)n3)CC2)CC1 [compound 191] |
| 480 nM | > 10000 nM | CC1(C)Cc2cnc(N)nc2-c2[nH]nc(C(=O)N3CCC(N4CCCC4)CC3)c21 [compound 36] |

| SMILES | IC50 (Δ49N-hChoKα) | IC50 (hChoKβ FL) |
| --- | --- | --- |
| CN(C)[C@H]1CCN(C(=O)Cc2csc(NC(=O)c3n[nH]c4c3C(C)(C)Cc3cnc(N)nc3-4)n2)C1 [compound 93] | 12 nM | 761 nM |
